Reference: patent US20240417395A1, “DUAL ANTAGONIST AND USE THEREOF” (NICOYA THERAPEUTICS (SHANGHAI) CO., LTD, priority 2021, published 2024)
≈ marks a conversion by molar mass, not a printed value. Read-outs that look alike come from different tables or passages of the source.

Key:
[1] = target: CYP2C19 (Homo sapiens (Human), UniProt P33261); test: Inhibition of cytochrome P450 isozyme CYP2C19; type: in vitro ADME; details: for IC50: recombinant enzyme
Procedure: (§1) A total of six specific probe substrates of six isozymes of CYPs, i.e., α-Naphthoflavone (CYP1A2), Sulphaphenazole (CYP2C9), Ticlopidine (CYP2C19), Quinidine (CYP2D6), Ketoconazole (CYP3A4), and Montelukast (CYP2C8) were co-incubated with recombinant hepatic drug enzymes CYP1A2, CYP2C9, CYP2C19, CYP2D6, CYP3A4, and CYP2C8 and test compounds, respectively. Nicotinamide adenine dinucleotide phosphate (NADP+), D-glucose-6-phosphate (G6P) and glucose-6-phosphate dehydrogenase (G6DHP) were added to start the reaction. At the end of the reaction, the corresponding half maximal inhibitory concentrations (IC50) were calculated by the fluorescence detection method (Ex490 nm/Em520 nm).

[2] = Experiment on water solubility (HPLC-UV); type: physicochemical
Procedure: The detection was carried out in accordance with the high performance liquid chromatography (General Principles 0512 of Chinese Pharmacopoeia Volume IV (2020)):
Chromatographic conditions for the HPLC-UV method: mobile phase: 0.02 M KH2PO4 aqueous solution-acetonitrile (90:10), gradient elution; chromatographic column: C18; detection wavelength: 210 nm. The water solubility was calculated based on the peak area by the external standard method.

[3] = target: CYP3A4 (Homo sapiens (Human), UniProt P08684); test: Inhibition of cytochrome P450 isozyme CYP3A4; type: in vitro ADME; details: for IC50: recombinant enzyme
CYP3A4, sequence (P08684 whole entry): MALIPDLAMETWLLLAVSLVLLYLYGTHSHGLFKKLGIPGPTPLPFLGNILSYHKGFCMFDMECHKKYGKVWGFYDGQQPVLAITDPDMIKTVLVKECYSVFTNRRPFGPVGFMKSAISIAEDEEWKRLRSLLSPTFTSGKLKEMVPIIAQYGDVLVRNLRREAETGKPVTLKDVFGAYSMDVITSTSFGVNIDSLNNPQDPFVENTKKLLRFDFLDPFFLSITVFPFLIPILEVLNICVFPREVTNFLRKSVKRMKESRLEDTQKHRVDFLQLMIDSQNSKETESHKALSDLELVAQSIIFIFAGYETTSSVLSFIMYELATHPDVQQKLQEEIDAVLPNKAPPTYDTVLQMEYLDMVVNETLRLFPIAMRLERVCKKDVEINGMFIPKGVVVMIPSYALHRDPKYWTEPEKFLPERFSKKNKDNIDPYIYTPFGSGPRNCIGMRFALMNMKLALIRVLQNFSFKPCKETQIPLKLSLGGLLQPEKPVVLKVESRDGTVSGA
Procedure: as §1

[4] = target: ETa (Homo sapiens (Human), UniProt P25101); test: Calcium flux assay on ETa cell line; type: cell-based; details: ETa/HEK293, calcium flux, endothelin-1 agonist
ETa, sequence (P25101 21-427): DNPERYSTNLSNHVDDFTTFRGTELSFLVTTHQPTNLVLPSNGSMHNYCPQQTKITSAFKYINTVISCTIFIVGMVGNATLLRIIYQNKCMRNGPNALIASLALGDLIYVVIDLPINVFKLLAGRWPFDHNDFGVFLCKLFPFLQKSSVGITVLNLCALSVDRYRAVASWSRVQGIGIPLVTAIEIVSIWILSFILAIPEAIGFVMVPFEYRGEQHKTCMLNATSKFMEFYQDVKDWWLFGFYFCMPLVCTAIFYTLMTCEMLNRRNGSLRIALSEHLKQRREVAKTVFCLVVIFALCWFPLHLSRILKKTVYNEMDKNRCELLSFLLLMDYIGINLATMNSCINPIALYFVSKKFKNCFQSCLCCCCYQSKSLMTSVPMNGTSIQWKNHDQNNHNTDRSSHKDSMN
Procedure: Test materials: a) cell line: ETa/HEK293; b) vehicles: DMEM, Invitrogen (Cat #11960); Geneticin, Invitrogen (Cat #10131); c) reagent: Fluo-4 Direct, (Invitrogen, Cat #F10471); d) instruments: 384 well Poly-D-Lysine protein coating plate, Greiner #781946; Vi-cell XR Cell Viability Analyzer, Beckman Coulter; Incubator, Thermo.
For the employed agonist endothelin factor (endothelin-1, ET-1) master plate: the agonist was diluted from 50 μM to 15 μM with the test buffer solution.
For antagonist (BQ123, Am J Physiol. 1994 April; 266 (4 Pt 2): H1327-31.) plates and the compound plates: the antagonist and the tested compounds were diluted with DMSO at a gradient ratio of 1:4 to obtain 10 concentration points. Afterwards, 900 nL of each compound solution was transferred to the master plate and 30 μL of the test buffer solution was added. • a) The cell line was removed from the incubator, and 20 μL of 2X Fluo-4 Direct™ buffer solution was added gently by a pipette to a 384-well cell culture plate. • b) The cell plate was incubated at 37° C. for 50 min in the environment of 5% CO2, and then incubated at room temperature for 10 min. • c) The cell plate was removed from the incubator and placed in FLIPR. The compound plates and the tip box were placed in FLIPR. • d) Regarding the EC80 plate: • 1) Operations were conducted on […]. • 2) 10 μL of compound solution was transferred from the EC80 master plate to the cell plate. • 3) Fluorescence signals were read. • 4) The read signals were counted, and the EC80 value of each cell line was calculated using FLIPR. • 5) For the concentration of the compound plate, a solution having a concentration 6 times that of the reference agonist EC80 was formulated. • e) Regarding the compound plate: • 1) Operations were conducted on […]. • 2) 10 μL of compound was transferred to the cell plate. • 3) Fluorescence signals were read. • 4) 10 μL of solution having a concentration 6 times that of the reference agonist EC80 was transferred to the cell plate. • 5) Fluorescence signals were read. • f) Data analysis by Prism

[5] = target: CYP2C8 (Homo sapiens (Human), UniProt P10632); test: Inhibition of cytochrome P450 isozyme CYP2C8; type: in vitro ADME; details: for IC50: recombinant enzyme
CYP2C8, sequence (P10632 whole entry): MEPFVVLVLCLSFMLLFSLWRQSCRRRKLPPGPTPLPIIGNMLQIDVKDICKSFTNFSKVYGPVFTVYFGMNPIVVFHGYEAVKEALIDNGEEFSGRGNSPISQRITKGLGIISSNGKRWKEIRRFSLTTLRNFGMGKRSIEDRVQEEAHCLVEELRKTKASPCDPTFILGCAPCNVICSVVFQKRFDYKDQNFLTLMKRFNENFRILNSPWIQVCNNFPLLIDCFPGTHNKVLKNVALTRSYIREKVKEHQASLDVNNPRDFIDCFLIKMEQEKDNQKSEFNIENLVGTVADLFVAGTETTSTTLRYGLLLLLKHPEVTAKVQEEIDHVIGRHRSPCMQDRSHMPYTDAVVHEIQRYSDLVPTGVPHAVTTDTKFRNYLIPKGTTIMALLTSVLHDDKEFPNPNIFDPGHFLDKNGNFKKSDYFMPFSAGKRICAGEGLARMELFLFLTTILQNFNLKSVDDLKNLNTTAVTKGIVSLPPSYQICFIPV
Procedure: as §1

[6] = target: CYP2C9 (Homo sapiens (Human), UniProt P11712); test: Inhibition of cytochrome P450 isozyme CYP2C9; type: in vitro ADME; details: for IC50: recombinant enzyme
CYP2C9, sequence (P11712 whole entry): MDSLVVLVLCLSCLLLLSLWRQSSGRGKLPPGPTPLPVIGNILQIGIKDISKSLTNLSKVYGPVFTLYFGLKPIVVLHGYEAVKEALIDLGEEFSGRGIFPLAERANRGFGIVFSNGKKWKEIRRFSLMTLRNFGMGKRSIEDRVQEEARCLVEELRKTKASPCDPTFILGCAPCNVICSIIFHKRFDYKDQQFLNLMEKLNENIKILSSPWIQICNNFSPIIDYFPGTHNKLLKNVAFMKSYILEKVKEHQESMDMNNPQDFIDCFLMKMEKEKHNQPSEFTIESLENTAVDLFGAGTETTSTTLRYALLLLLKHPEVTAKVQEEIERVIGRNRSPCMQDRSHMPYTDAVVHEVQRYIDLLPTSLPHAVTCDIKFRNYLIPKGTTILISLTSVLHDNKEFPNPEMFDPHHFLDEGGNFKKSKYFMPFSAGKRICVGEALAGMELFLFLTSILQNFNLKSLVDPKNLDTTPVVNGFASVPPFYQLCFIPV
Procedure: as §1

[7] = target: CYP1A2 (Homo sapiens (Human), UniProt P05177); test: Inhibition of cytochrome P450 isozyme CYP1A2; type: in vitro ADME; details: for IC50: recombinant enzyme
CYP1A2, sequence (P05177 whole entry): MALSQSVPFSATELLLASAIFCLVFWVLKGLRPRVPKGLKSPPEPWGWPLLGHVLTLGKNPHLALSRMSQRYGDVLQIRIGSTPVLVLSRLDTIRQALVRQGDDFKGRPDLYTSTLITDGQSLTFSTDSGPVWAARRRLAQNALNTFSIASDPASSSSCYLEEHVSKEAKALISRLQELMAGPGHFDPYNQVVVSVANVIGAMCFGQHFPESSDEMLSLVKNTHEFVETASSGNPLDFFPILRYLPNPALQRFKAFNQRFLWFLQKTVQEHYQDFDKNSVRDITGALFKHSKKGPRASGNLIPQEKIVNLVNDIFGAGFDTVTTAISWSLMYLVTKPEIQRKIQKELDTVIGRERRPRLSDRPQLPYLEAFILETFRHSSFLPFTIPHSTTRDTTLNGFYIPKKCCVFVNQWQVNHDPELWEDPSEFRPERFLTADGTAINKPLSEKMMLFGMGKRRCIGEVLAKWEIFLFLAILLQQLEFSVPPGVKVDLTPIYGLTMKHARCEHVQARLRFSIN
Procedure: as §1

[8] = Pharmacokinetic test in rats; type: in vivo; details: SD rats; for Bioavailability: PO 10 mg/kg vs IV 1 mg/kg; for in vivo exposure after oral administration (in words) / oral bioavailability versus reference compound (in words): oral gavage
Procedure: Experimental animal: SD rats, 6-8 weeks. Six animals were used for each example compound.
Drug solution formulation: all of the Experimental Example compounds were formulated into 1 mg/mL solution. The solution system was 5% DMSO+20% Solutol HS15+75%(20% HP—β-CD aqueous solution).
Grouping for administration: the first group was administered by oral gavage (PO, three SD rats, 10 mg/kg, fasted overnight before administration, and fed after 4 hours following the administration); and the second group was administered by intravenous injection in dorsum of foot (IV, three SD rats, 1 mg/kg, fed freely).
Blood sampling time and treatment method: Blood was collected via the jugular vein at the following 7 to 8 points in time: 0.083 (only in the intravenous injection group), 0.25, 0.5, 1, 2, 4, 8, and 24 hours. The blood samples were centrifuged (2000 g, 4° C., 5 min) to obtain plasma. The samples were stored at −70° C. before analysis.
Analytical instruments and conditions: LC-MS/MS-33 (Triple Quad 6500+); MS: positive, ESI; mobile phases: Mobile phase A: H2O-0.025% FA-1 mM NH4OAc, Mobile phase B: MeOH-0.025% FA-1 mM NH4OAc; flow rate: 0.60 mL/min; chromatographic column: ACQUITY UPLC-BEH C18 (2.1×50 mm, 1.7 μm); column temperature: 60° C.

[9] = target: CYP2D6 (Homo sapiens (Human), UniProt P10635); test: Inhibition of cytochrome P450 isozyme CYP2D6; type: in vitro ADME; details: for IC50: recombinant enzyme
CYP2D6, sequence (P10635 whole entry): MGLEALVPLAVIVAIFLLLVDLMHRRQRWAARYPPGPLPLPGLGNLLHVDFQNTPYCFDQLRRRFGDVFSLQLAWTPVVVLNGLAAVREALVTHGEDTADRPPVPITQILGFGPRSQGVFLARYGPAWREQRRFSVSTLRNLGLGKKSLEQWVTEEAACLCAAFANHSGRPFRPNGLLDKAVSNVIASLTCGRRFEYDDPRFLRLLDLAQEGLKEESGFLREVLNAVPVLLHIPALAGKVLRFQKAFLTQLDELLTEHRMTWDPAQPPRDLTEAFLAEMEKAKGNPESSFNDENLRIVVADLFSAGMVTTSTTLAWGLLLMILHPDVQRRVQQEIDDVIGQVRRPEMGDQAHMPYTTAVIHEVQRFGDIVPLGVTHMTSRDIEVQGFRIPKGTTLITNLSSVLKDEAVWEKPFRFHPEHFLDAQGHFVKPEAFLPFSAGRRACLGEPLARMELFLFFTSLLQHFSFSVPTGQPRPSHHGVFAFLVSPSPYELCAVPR
Procedure: as §1

[10] = read-out: IC50 activity against ETa (class)
[11] = fluorescence detection, read-out: IC50 CYP2C19
[12] = fluorescence detection, read-out: IC50 CYP3A4
[13] = fluorescence detection, read-out: IC50 CYP2C8
[14] = fluorescence detection, read-out: IC50 CYP2C9
[15] = fluorescence detection, read-out: IC50 CYP1A2
[16] = fluorescence detection, read-out: IC50 CYP2D6

CYP2C19, sequence (P33261 whole entry): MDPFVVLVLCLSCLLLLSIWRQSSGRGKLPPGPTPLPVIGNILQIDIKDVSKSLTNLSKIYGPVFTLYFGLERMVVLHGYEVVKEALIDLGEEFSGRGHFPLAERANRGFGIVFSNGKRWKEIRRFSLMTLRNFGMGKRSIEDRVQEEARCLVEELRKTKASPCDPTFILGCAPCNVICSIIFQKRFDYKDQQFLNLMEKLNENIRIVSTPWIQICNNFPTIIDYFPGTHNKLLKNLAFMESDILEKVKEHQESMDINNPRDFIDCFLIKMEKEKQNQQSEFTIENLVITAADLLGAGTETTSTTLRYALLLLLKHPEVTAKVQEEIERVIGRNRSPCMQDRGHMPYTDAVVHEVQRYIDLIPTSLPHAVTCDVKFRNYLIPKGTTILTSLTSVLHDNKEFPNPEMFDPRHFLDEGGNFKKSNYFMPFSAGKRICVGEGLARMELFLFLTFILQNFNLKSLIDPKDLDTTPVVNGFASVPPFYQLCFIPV

| Compound | Solubility FaSSGF (pH1.6) ([2]; FaSSGF (pH1.6)) [mg/mL] | Solubility FaSSIF (pH6.5) ([2]; FaSSIF (pH6.5)) [mg/mL] | Solubility FeSSIF (pH5.0) ([2]; FeSSIF (pH5.0)) [mg/mL] | Solubility pH7.4 ([2]; pH7.4) [mg/mL] | IC50 [4, 10] [µM] | IC50 ([4]; read-out: IC50 against ETa) [µM] | AUClast ([8]; PO 10 mg/kg) [ng·h/mL] | Cmax ([8]; PO 10 mg/kg) [ng/mL] | T1/2 ([8]; PO 10 mg/kg) [h] | Tmax ([8]; PO 10 mg/kg) [h] | Bioavailability [8] [%] | in vivo exposure after oral administration (in words) [8] | oral bioavailability versus reference compound (in words) [8] | risk of inhibiting CYP2C19 activity (conclusion in words) ([1]; conclusion to Table 4) | IC50 [1, 11] [µM] | risk of inhibiting CYP3A4 activity (conclusion in words) ([3]; conclusion to Table 4) | IC50 [3, 12] [µM] | risk of inhibiting CYP2C8 activity (conclusion in words) ([5]; conclusion to Table 4) | IC50 [5, 13] [µM] | risk of inhibiting CYP2C9 activity (conclusion in words) ([6]; conclusion to Table 4) | also measured |
| --- | --- | --- | --- | --- | --- | --- | --- | --- | --- | --- | --- | --- | --- | --- | --- | --- | --- | --- | --- | --- | --- |
| CCCCC1=N[C@@]2(CC3C[C@H]3C2)C(=O)N1Cc1ccc(-c2ccccc2S(=O)(=O)Nc2noc(C)c2C)c(COCC)c1 (stereo partly drawn) [Example 3] | >1 | 0.19 | 0.06 | 0.82 | 0.01 to 0.1 | 0.0105 | 24407 | 2993 | 7.00 | 2.17 | 69.3 | high in vivo exposure | higher oral bioavailability | – | – | – | – | – | – | – | risk of inhibiting CYP2C19 activity (conclusion in words) [1]: no risk of inhibiting; IC50 [1]: > 10 µM; risk of inhibiting CYP3A4 activity (conclusion in words) [3]: had an inhibitory effect; IC50 [3]: 1 to 10 µM; risk of inhibiting CYP2C8 activity (conclusion in words) [5]: no risk of inhibiting; IC50 [5]: > 10 µM; risk of inhibiting CYP2C9 activity (conclusion in words) [6]: no risk of inhibiting; IC50 [6]: > 10 µM; risk of inhibiting CYP1A2 activity (conclusion in words) [7]: no risk of inhibiting; IC50 [7]: > 10 µM; risk of inhibiting CYP2D6 activity (conclusion in words) [9]: no risk of inhibiting; IC50 [9]: > 10 µM |
| CCCCC1=N[C@@]2(CC3C[C@H]3C2)C(=O)N1Cc1ccc(-c2ccccc2S(=O)(=O)Nc2noc(C)c2Cl)c(COCC)c1 (stereo partly drawn) [Example 7] | 0.24 | 0.87 | 0.08 | 0.84 | 0.01 to 0.1 | 0.0243 | 23530 | 3080 | 5.28 | 3.33 | 43.4 | high in vivo exposure | higher oral bioavailability | no risk of inhibiting | > 10 | no risk of inhibiting | > 10 | no risk of inhibiting | > 10 | no risk of inhibiting | IC50 [6, 14]: > 10 µM; risk of inhibiting CYP1A2 activity (conclusion in words) ([7]; conclusion to Table 4): no risk of inhibiting; IC50 [7, 15]: > 10 µM; risk of inhibiting CYP2D6 activity (conclusion in words) ([9]; conclusion to Table 4): no risk of inhibiting; IC50 [9, 16]: > 10 µM |
| CCCCC1=NC2(CCCC2)C(=O)N1Cc1ccc(-c2ccccc2S(=O)(=O)Nc2noc(C)c2C)c(COCC)c1 [Sparsentan, reference compound] | – | – | – | – | – | 0.0808 | – | – | – | – | – | – | – | no risk of inhibiting | > 10 | had an inhibitory effect | 1 to 10 | had an inhibitory effect | 1 to 10 | no risk of inhibiting | solubility ([2]; aqueous medium at pH 7.4 (buffer not named), pH 7.4, aqueous buffer, pH7.4, read-out: Solubility pH7.4): 210 µg/mL (≈ 354 µM); solubility ([2]; pH 1.6, fassgf or other biorelevant, FaSSGF (pH1.6), read-out: Solubility FaSSGF (pH1.6)): 130 µg/mL (≈ 219 µM); solubility ([2]; pH 5, FeSSIF (pH5.0), read-out: Solubility FeSSIF (pH5.0)): 20 µg/mL (≈ 33.7 µM); solubility ([2]; pH 6.5, FaSSIF (pH6.5), read-out: Solubility FaSSIF (pH6.5)): 80 µg/mL (≈ 135 µM); IC50 [6, 14]: > 10 µM; risk of inhibiting CYP1A2 activity (conclusion in words) ([7]; conclusion to Table 4): no risk of inhibiting; IC50 [7, 15]: > 10 µM; AUC(0-t) ([8]; rat, plasma, PO 10 mg/kg): 18600 ng·h/mL; half-life ([8]; rat, plasma, PO 10 mg/kg): 15.4 h; Bioavailability ([8]; rat, plasma, read-out: Bioavailability): 20.6%; Cmax ([8]; rat, plasma, PO 10 mg/kg, read-out: Cmax): 1800 ng/mL; Tmax ([8]; rat, plasma, PO 10 mg/kg, read-out: Tmax): 1.42 h; risk of inhibiting CYP2D6 activity (conclusion in words) ([9]; conclusion to Table 4): no risk of inhibiting; IC50 [9, 16]: > 10 µM |
